Laboratory results from patent US12338484B2, “FRET biosensor for detecting and reporting NAD+/NADH ratio changes” (Sartorius BioAnalytical Instruments, Inc., priority 2022, dated 2025).

What was measured:
Assay type in all cases: biochemical
[1] = biological target: Thermus aquaticus T-Rex FRET biosensor construct #14 (Rex(A)-mEGFP-Rex(B)-mKOk, SEQ ID NO: 174), library variant 1-F8, SEQ ID NO: 13 (Thermus aquaticus, UniProt Q9X2V5, E116G/F189I/K117M/K47E/R46D/R58D/S30A/Y98W); test: Signal window in bacterial lysates, FRET ratio in presence or absence of 200 uM NADH (Table 2); details: clone 1-F8, SEQ ID NO: 13
Source text: (§1) In specific embodiments, the fusion protein comprises the amino acid sequence selected from the group consisting of SEQ ID NO: 13-93, 95-154, and 191-193; the sequences are provided in Table 2 and the examples.
(§2) Protein library DNA was generated following cloning that assembled pieces of DNA that were generated using PCRs with mixtures of primers. DNA was transformed into E. coli, and the first round of protein library expression was done in bacterial colonies on agar plates. The colonies, each expressing different library members, were imaged, and then classified into groups based on their FRET ratio signal. Colonies from different groups were inoculated into 96-deep-well plates for further protein expression in liquid culture. The original construct that was used to generate the library (e.g., construct #14 in Table 2) was also inoculated on the same plates, along with non-expressing bacteria. The latter served as a negative control.

[2] = biological target: Thermus aquaticus T-Rex FRET biosensor construct #14 (Rex(A)-mEGFP-Rex(B)-mKOk, SEQ ID NO: 174), library variant 3-C8, SEQ ID NO: 14 (Thermus aquaticus, UniProt Q9X2V5, E116G/F189I/K117M/K47E/R46D/R58D/S30A/Y98W); test: as above; details: clone 3-C8, SEQ ID NO: 14
Source text: as §1, §2

[3] = biological target: Thermus aquaticus T-Rex FRET biosensor construct #14 (Rex(A)-mEGFP-Rex(B)-mKOk, SEQ ID NO: 174), library variant 1-A7, SEQ ID NO: 20 (Thermus aquaticus, UniProt Q9X2V5, E116G/F189I/K117M/K47E/R46D/R58D/S30A/Y98W); test: as above; details: clone 1-A7, SEQ ID NO: 20
Source text: as §1, §2

[4] = biological target: Thermus aquaticus T-Rex FRET biosensor construct #14 (Rex(A)-mEGFP-Rex(B)-mKOk, SEQ ID NO: 174), library variant 1-G8, SEQ ID NO: 16 (Thermus aquaticus, UniProt Q9X2V5, E116G/F189I/K117M/K47E/R46D/R58D/S30A/Y98W); test: as above; details: clone 1-G8, SEQ ID NO: 16
Source text: as §1, §2

[5] = biological target: Thermus aquaticus T-Rex FRET biosensor construct #14 (Rex(A)-mEGFP-Rex(B)-mKOk, SEQ ID NO: 174), library variant 4-D10, SEQ ID NO: 17 (Thermus aquaticus, UniProt Q9X2V5, E116G/F189I/K117M/K47E/R46D/R58D/S30A/Y98W); test: as above; details: clone 4-D10, SEQ ID NO: 17
Source text: as §1, §2

[6] = biological target: Thermus aquaticus T-Rex FRET biosensor construct #14 (Rex(A)-mEGFP-Rex(B)-mKOk, SEQ ID NO: 174), library variant 2-F3, SEQ ID NO: 15 (Thermus aquaticus, UniProt Q9X2V5, E116G/F189I/K117M/K47E/R46D/R58D/S30A/Y98W); test: as above; details: clone 2-F3, SEQ ID NO: 15
Source text: as §1, §2

[7] = biological target: Thermus aquaticus T-Rex FRET biosensor construct #14 (Rex(A)-mEGFP-Rex(B)-mKOk, SEQ ID NO: 174), library variant 4-F1, SEQ ID NO: 18 (Thermus aquaticus, UniProt Q9X2V5, E116G/F189I/K117M/K47E/R46D/R58D/S30A/Y98W); test: as above; details: clone 4-F1, SEQ ID NO: 18
Source text: as §1, §2

[8] = biological target: Thermus aquaticus T-Rex FRET fusion, initial construct #14, Rex(A)-mEGFP-Rex(B)-mKOk, SEQ ID NO: 174 (Thermus aquaticus, UniProt Q9X2V5, E116G/F189I/K117M/K204T/K47E/R46D/R58D/S30A/Y98W); test: FRET response (emission spectra) of purified initial construct #14 in absence or presence of 40 uM NADH; parameters: key: Good response: Constructs with very clear and robust spectra separation; Poor response: those with noticeable but small spectra separation; No response: those having no spectra separation
Protocol: (§3) 16 initial FRET constructs (See Table 3) were constructed using expression vector pET28c with a T7 promoter and lac operator and expressed in E. coli. Cells were collected and lysed using a commercially-available lysis buffer. Proteins of interest were isolated from the lysates using Ni-NTA magnetic beads. Eluted proteins were subjected to buffer exchange and final protein concentrating. To test performance of the initial FRET constructs, their emission spectra was recorded on a plate reader in absence or presence of 40 uM NADH. Resulting emission spectra with or without the ligand were normalized and overlaid for each construct. Constructs with very clear and robust spectra separation were labeled as having “good response”, those with noticeable but small spectra separation were labeled as having “poor response”, and finally those having no spectra separation were labeled as having “no response”.

[9] = biological target: Thermus aquaticus T-Rex FRET fusion, initial construct #13, mKOk-Rex(A)-mEGFP-Rex(B), SEQ ID NO: 173 (Thermus aquaticus, UniProt Q9X2V5, E116G/F189I/K117M/K204T/K47E/R46D/R58D/S30A/Y98W); test: FRET response (emission spectra) of purified initial construct #13 in absence or presence of 40 uM NADH; parameters: key: Good response: Constructs with very clear and robust spectra separation; Poor response: those with noticeable but small spectra separation; No response: those having no spectra separation
Protocol: as §3

[10] = biological target: T1, Thermus aquaticus T-Rex FRET fusion, initial construct #8, Rex(78-211)-Rex(78-189)-cpmEGFP(173/174)-Rex(190-211)-mKOk, SEQ ID NO: 168 (Thermus aquaticus, UniProt Q9X2V5, INS189[…]); test: FRET response (emission spectra) of purified initial construct #8 in absence or presence of 40 uM NADH; parameters: key: Good response: Constructs with very clear and robust spectra separation; Poor response: those with noticeable but small spectra separation; No response: those having no spectra separation
T1 construct: His-tag purified from E. coli
Protocol: as §3

[11] = biological target: T2, Thermus aquaticus T-Rex FRET fusion, initial construct #6, Rex(78-189)-cpmEGFP(173/174)-Rex(190-211)-Rex(78-211)-mKOk, SEQ ID NO: 166 (Thermus aquaticus, UniProt Q9X2V5, INS189[…]); test: FRET response (emission spectra) of purified initial construct #6 in absence or presence of 40 uM NADH; parameters: key: Good response: Constructs with very clear and robust spectra separation; Poor response: those with noticeable but small spectra separation; No response: those having no spectra separation
T2 construct: His-tag purified from E. coli
Protocol: as §3

SMILES: NC(=O)C1=CN([C@@H]2O[C@H](COP(=O)(O)OP(=O)(O)OC[C@H]3O[C@@H](n4cnc5c(N)ncnc54)[C@H](O)[C@@H]3O)[C@@H](O)[C@H]2O)C=CC1 [NADH]
- Signal window (ex mode), measured in lysates [1]: 0.55
- Signal window (ex mode), measured in lysates [2]: 0.4
- Signal window (ex mode), measured in lysates [3]: 0.31
- Signal window (ex mode), measured in lysates [4]: 0.34
- Signal window (ex mode), measured in lysates [5]: 0.34
- Signal window (ex mode), measured in lysates [6]: 0.34
- Signal window (ex mode), measured in lysates [7]: 0.33
- FRET response to NADH [8]: Good response
- FRET response to NADH [9]: Poor response
- FRET response to NADH [10]: No response
- FRET response to NADH [11]: No response
